Assay results taken from ChEMBL document CHEMBL1157539, “Thousands of chemical starting points for antimalarial lead identification” (Nature, 2010).

Test system: Plasmodium falciparum
Experiment: GSK_TCMDC: Inhibition of Plasmodium falciparum 3D7 in whole erythrocytes, using parasite LDH activity as an index of growth.
Format: functional, organism-based
Settings: Plasmodium falciparum, 3D7

CCN(CC)CCNc1nc(C=Cc2ccc(Cl)cc2)nc2cc3ccccc3cc12
XC50: 147 nM

O=C(O)CCc1ccc(-c2c[nH]c3ncc(-c4ccc5ncccc5c4)cc23)cc1
XC50: 302 nM

COc1ccc(CC(=O)NC2CCN(c3ccnc4cc(Cl)ccc34)C2)cc1 (stereo not given)
XC50: 241 nM

CS(=O)(=O)CCNCc1ccc(-c2ccc3c(Nc4ccc(F)cc4Cl)ccnc3c2)o1
XC50: 744 nM

COc1ccc(CNC2CCN(C)CC2)cc1-c1ccc(S(=O)(=O)NCc2ccccc2)c(C)c1
XC50: 992 nM

COc1cc(-n2cnc3cc(-c4ccc(Cl)cc4)sc3c2=O)ccc1OCCN1CCC(c2cccc(NC(C)=O)c2)CC1
XC50: 553 nM

Oc1ccc(Br)cc1-c1nc2ccc(Cl)cc2nc1-c1cc(Br)ccc1O
XC50: 789 nM

O=C(NCCN1CCOCC1)c1ccc(O)c(-c2cccc(C(F)(F)F)c2)c1
XC50: 752 nM

CCCOc1ccc(N2C(N)=NC(N)=NC2(C)C)cc1
XC50: 487 nM

Cn1ccnc1S(=O)(=O)CCNCc1ccc(-c2ccc3ncnc(Nc4ccc(OCc5cccc(F)c5)c(Cl)c4)c3c2)o1
XC50: 701 nM

Cc1ccc(-c2nc(Nc3ccncc3)c3ccccc3n2)s1
XC50: 830 nM

O=C(Cn1c(=O)oc2ccccc21)N1CCC(n2c(=O)n(CCCN3CCOCC3)c3ccccc32)CC1
XC50: 774 nM

Fc1ccc2[nH]c3c(NCCCN4CCOCC4)ncnc3c2c1
XC50: 714 nM

COc1ccc2c(=NN=C(C)c3ccccn3)cc(C)[nH]c2c1
XC50: 722 nM

Cc1cc(-c2ccc3c(c2)CCN(CCC2CCC(NC(=O)/C=C/c4ccccc4F)CC2)CC3)on1 (stereo not given)
XC50: 811 nM

COc1cccc(Nc2nccc(NCC(O)c3ccc(C(F)(F)F)cc3)n2)c1 (stereo not given)
XC50: 659 nM

COc1ccc(S(=O)(=O)NCCC2CCN(CCCCCNC(=O)C=Cc3ccc(Cl)c(Cl)c3)CC2)cc1
XC50: 957 nM

CN1CCN(c2cc(NC(=O)Nc3ccc(-c4ccncc4)c(Cl)c3)ccc2Br)CC1
XC50: 899 nM

CCOC(=O)C(NC(=O)Cc1ccccc1)C(C)C (stereo not given)
XC50: 295 nM

O=C(NC1CC1)c1cnc(N2CCC(OCc3ccccc3)CC2)c(Cl)c1
XC50: 1400 nM

CC(C)(C)C1CC(=O)CC2C(=O)N(c3ccc(Br)cc3)C(=O)C21 (stereo not given)
XC50: 934 nM

c1cc(-c2ccc(CNCc3ccc(-c4csnn4)cc3)cc2)cc(-c2nc3ccccc3[nH]2)c1
XC50: 158 nM

Fc1cccc(-c2ccc3c(c2)CC(NCc2c[nH]c4cnccc24)C3)c1 (stereo not given)
XC50: 480 nM

O=C(c1ccc(OCCn2ccnc2)cc1)N1CCC(c2ccc(Br)cc2)C1 (stereo not given)
XC50: 116 nM

CS(=O)(=O)c1ccc(-c2cnc(N)c(-c3cccc(CO)c3)c2)cc1
XC50: 939 nM

c1ccc(CCNc2ccnc(Nc3ccc4cn[nH]c4c3)n2)cc1
XC50: 467 nM

CC1CN(c2cnn(Cc3cccc(NC(=O)Nc4cccc(C(F)(F)F)c4)c3)c(=O)c2Cl)CC(C)N1 (stereo not given)
XC50: 818 nM

O=C(/C=C/c1ccc(Cl)cc1Cl)N1CCC(CCN2CCC(c3c[nH]c4ccccc34)CC2)CC1
XC50: 796 nM

CC(=O)N1c2ccccc2C(C)=CC1(C)C
XC50: 938 nM

CCc1cccc(C)c1-n1nc(-c2cc(C(C)(C)C)oc2C)cc1N
XC50: 658 nM

c1ccc2c(NCCCCCCCNc3ccnc4ccccc34)ccnc2c1
XC50: 169 nM

O=C(Nc1ccc(Cn2ncc(N3CCCNCC3)c(Cl)c2=O)cc1)Nc1ccc(SC(F)(F)F)cc1
XC50: 529 nM

O=C(CSc1nc2ccccc2c(=O)n1CC1CCCO1)Nc1cc(C(F)(F)F)ccc1Cl (stereo not given)
XC50: 229 nM

Cc1cc(NC2CCN(CC3CCCCC3)C2)nc(Nc2ccc(Cl)cc2)n1 (stereo not given)
XC50: 404 nM

O=C(Nc1cccc(-c2nc3ccccc3[nH]2)c1)c1ccc(-c2cccc([N+](=O)[O-])c2)o1
XC50: 151 nM

N#Cc1cccc(NC(=O)Nc2cccc(-c3cccc(-c4nc5ccccc5[nH]4)c3)c2)c1
XC50: 90.2 nM

CCc1c(C)nc2nc(Cc3cccc(F)c3)nn2c1N1CCN(c2ccccn2)CC1
XC50: 750 nM

O=C(Nc1ccc(-c2cccc(-c3nc4cc(C(F)(F)F)ccc4[nH]3)c2)cc1)c1cccnc1
XC50: 725 nM

Nc1ccn([C@@H]2O[C@H](COC(c3ccccc3)(c3ccccc3)c3ccccc3)[C@@H](O)[C@@H]2O)c(=O)n1
XC50: 834 nM

Cc1nc(NCc2ccccc2)cc(NCC(O)c2ccc(O)cc2)n1 (stereo not given)
XC50: 1230 nM

NS(=O)(=O)c1ccc(Nc2nccc(-c3c(-c4cccc(NC(=O)c5c(F)cccc5F)c4)nn4ccccc34)n2)cc1
XC50: 762 nM

CC(C)(C)c1ccc(CN2CCCCC(NC(=O)c3cc(-c4cccc(F)c4)cs3)C2)cc1 (stereo not given)
XC50: 783 nM

COc1ccc(Br)cc1C1Nc2ccc3ccccc3c2C2=C1C(=O)CC(c1ccccc1)C2 (stereo not given)
XC50: 590 nM

Cc1cc(C(=O)Nc2ccc3c(c2)CCN3C2CCN(Cc3ccc(F)cc3Cl)C2)no1 (stereo not given)
XC50: 189 nM

CN1CCCc2ccc(NC(=O)c3ccc(-c4cc(C(F)(F)F)nn4C)s3)cc2C1
XC50: 880 nM

Cc1ccc(NC(=O)c2ccc(CN3CCCN(CC4CCCCC4)CC3)cc2)cc1F
XC50: 290 nM

Cc1cccc2nc(-c3ccc(-c4cccc(CN5CCC(CCN6CCCCC6)CC5)c4)s3)[nH]c12
XC50: 140 nM

c1cc(Nc2nc(-c3ccc(-c4csc(Nc5ccncc5)n4)cc3)cs2)ccn1
XC50: 117 nM

COc1ccc(S(=O)(=O)NC2CCN(c3cc(C)nc(Nc4cccc(C#N)c4)n3)CC2)cc1
XC50: 946 nM

CN(C)CCCOc1ccc(CCCCc2ccc(Cl)cc2C(=O)c2ccccc2)cc1
XC50: 1030 nM
